{
  "source": "patent US7265248B1",
  "about": "“Compositions and methods for the treatment of malaria” (Technology Innovations, LLC, priority 2005, dated 2007)",
  "origin": "cited, not measured here",
  "key": {"[1]": {"assay": "not given", "remark": "listed apart in the source"}, "[2]": {"conditions": "in vivo"}, "[3]": {"molecular_target": "T1, alpha/beta II (Bos taurus, UniProt Q6B856)", "T1 construct": "microtubules were prepared from bovine cerebra by the method of Fellous et al and tubulin was purified therefrom by phosphocellulose chromatography; from tissue; host or cells: bovine cerebra (brain)", "T1 sequence (P81947 whole entry)": "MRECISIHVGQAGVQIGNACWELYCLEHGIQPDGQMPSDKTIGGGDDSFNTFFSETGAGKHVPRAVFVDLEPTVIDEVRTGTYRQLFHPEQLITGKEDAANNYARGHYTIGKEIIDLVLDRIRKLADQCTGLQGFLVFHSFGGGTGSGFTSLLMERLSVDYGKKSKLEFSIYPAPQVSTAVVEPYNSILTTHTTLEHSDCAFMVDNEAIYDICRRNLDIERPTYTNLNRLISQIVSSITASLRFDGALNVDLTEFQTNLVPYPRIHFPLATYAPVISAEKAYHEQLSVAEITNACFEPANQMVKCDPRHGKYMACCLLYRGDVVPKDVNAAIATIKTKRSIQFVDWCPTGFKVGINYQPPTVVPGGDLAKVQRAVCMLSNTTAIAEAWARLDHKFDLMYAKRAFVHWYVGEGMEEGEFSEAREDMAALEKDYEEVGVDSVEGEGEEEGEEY", "T1 sequence (Q6B856 whole entry)": "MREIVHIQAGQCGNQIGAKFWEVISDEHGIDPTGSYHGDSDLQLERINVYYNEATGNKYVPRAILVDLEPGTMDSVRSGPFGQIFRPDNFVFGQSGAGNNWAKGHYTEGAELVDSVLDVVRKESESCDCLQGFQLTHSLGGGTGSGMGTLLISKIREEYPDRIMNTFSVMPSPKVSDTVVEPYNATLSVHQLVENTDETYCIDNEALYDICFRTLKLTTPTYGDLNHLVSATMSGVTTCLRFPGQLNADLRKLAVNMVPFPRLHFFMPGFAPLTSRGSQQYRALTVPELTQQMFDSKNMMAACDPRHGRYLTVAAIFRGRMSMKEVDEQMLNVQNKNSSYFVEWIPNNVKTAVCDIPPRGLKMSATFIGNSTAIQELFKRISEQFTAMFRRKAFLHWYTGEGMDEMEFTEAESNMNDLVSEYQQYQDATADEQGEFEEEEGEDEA", "conditions": "compared with unfractionated tubulin"}, "[4]": {"molecular_target": "T2, alpha/beta III (Bos taurus, UniProt Q2T9S0)", "T2 construct": "microtubules were prepared from bovine cerebra by the method of Fellous et al and tubulin was purified therefrom by phosphocellulose chromatography; from tissue; host or cells: bovine cerebra (brain)", "T2 sequence (Q2T9S0 whole entry)": "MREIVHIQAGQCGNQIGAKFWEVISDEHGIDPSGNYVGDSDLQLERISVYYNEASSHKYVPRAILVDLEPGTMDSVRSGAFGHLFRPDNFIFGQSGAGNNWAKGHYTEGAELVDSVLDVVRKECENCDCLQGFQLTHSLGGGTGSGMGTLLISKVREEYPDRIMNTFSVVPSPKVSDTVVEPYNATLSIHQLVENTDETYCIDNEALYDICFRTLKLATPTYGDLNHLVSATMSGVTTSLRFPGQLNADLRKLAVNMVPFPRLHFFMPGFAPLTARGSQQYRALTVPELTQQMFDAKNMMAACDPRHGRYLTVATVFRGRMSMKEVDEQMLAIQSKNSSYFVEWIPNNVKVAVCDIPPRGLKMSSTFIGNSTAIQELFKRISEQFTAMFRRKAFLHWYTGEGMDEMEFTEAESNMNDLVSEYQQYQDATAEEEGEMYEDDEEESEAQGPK", "T2 sequence (P81947 whole entry, further chain)": "as the sequence (P81947 whole entry) above", "conditions": "compared with unfractionated tubulin"}, "[5]": {"molecular_target": "T3, alpha/beta IV (Bos taurus, UniProt Q3ZBU7)", "T3 construct": "microtubules were prepared from bovine cerebra by the method of Fellous et al and tubulin was purified therefrom by phosphocellulose chromatography; from tissue; host or cells: bovine cerebra (brain)", "T3 sequence (P81947 whole entry)": "as above", "T3 sequence (Q3ZBU7 whole entry)": "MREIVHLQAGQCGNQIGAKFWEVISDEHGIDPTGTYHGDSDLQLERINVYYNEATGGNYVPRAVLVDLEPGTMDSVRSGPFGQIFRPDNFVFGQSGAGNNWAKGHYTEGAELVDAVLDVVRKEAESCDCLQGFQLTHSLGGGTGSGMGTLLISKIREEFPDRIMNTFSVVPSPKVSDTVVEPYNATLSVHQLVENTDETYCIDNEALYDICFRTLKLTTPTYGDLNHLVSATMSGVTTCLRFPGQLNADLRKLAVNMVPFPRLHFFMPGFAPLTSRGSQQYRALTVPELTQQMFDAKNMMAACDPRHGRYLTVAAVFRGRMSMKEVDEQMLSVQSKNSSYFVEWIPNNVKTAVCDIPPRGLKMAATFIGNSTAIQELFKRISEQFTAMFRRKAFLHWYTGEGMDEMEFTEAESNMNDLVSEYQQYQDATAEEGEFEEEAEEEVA", "conditions": "compared with unfractionated tubulin, alpha/beta II, alpha/beta III"}, "[6]": {"molecular_target": "alpha/beta III dimer (Bos taurus, UniProt Q2T9S0)", "sequence (Q2T9S0 whole entry)": "as the sequence (Q2T9S0 whole entry) above", "sequence (P81947 whole entry, further chain)": "as the sequence (P81947 whole entry) above", "conditions": "compared with alpha/beta II and alpha/beta IV dimers"}},
  "note": "Like-named read-outs stand apart in the source and are kept apart here.",
  "data": [
    {"smiles": "OC(c1cc(C(F)(F)F)nc2c(C(F)(F)F)cccc12)C1CCCCN1", "note": "(stereo not shown) [mefloquine]", "values": [
      {"measurement": "volume of distribution", "setting": "in words", "result": "several times the volume of body water"},
      {"measurement": "protein binding", "setting": "[1]", "result": "~98", "unit": "%"}
    ]},
    {"smiles": "CCc1nc(N)nc(N)c1-c1ccc(Cl)cc1", "note": "[pyrimethamine]", "values": [
      {"measurement": "half life", "setting": "in vivo", "result": "80 to 95", "unit": "h"},
      {"measurement": "side effects", "setting": "[2]", "result": "blood dyscrasias"}
    ]},
    {"smiles": "CCN(CC)CCCC(C)Nc1ccnc2cc(Cl)ccc12", "note": "(stereo not shown) [chloroquine]", "values": [
      {"measurement": "volume of distribution", "setting": "in vivo", "result": "over 100 l/kg"},
      {"measurement": "half life", "setting": "in words", "result": "days to weeks"},
      {"measurement": "side effects", "setting": "[2]", "result": "cardiovascular and CNS effects"}
    ]},
    {"smiles": "COc1cc(OC)c(Cl)c(-n2c(-c3ccccc3)cc(=O)c(C)c2-c2ccc(F)cc2)c1", "note": "[IKP-104]", "values": [
      {"measurement": "apparent dissociation constant for the high-affinity site (Kd1)", "setting": "[3]", "result": "lower than that of unfractionated tubulin"},
      {"measurement": "apparent dissociation constant for the high-affinity site (Kd1)", "setting": "[4]", "result": "lower than that of unfractionated tubulin"},
      {"measurement": "apparent dissociation constant for the high-affinity site (Kd1)", "setting": "[5]", "result": "greater than those of unfractionated tubulin, alpha/beta II, or alpha/beta III"}
    ]},
    {"smiles": "O=C1C(O)=C([C@H]2CC[C@H](c3ccc(Cl)cc3)CC2)C(=O)c2ccccc21", "note": "[atovaquone]", "values": [
      {"measurement": "half life", "setting": "in vivo", "result": "36 to 72", "unit": "h"},
      {"measurement": "pharmacokinetic profile", "setting": "in words", "result": "double peaking"},
      {"measurement": "protein binding", "setting": "[1]", "result": 99, "unit": "%"},
      {"measurement": "side effects", "setting": "[2]", "result": "rash, vomiting, diarrhea, fever and headache"}
    ]},
    {"smiles": "COc1cc(NC(C)CCCN)c2ncccc2c1", "note": "(stereo not shown) [primaquine]", "values": [
      {"measurement": "side effects", "setting": "[2]", "result": "blood dyscrasias"}
    ]},
    {"smiles": "CC(=O)O[C@H]1C(=O)[C@@]2(C)[C@H]([C@H](OC(=O)c3ccccc3)[C@]3(O)C[C@H](OC(=O)[C@H](O)[C@@H](NC(=O)c4ccccc4)c4ccccc4)C(C)=C1C3(C)C)[C@]1(OC(C)=O)CO[C@@H]1C[C@@H]2O", "note": "[paclitaxel]", "values": [
      {"measurement": "interaction with ligand", "setting": "[6]", "result": "much less strongly"}
    ]}
  ]
}
